Source: US5321016A, “Use of certain substituted α-amino acids in treating stress-related psychiatric disorders” (Sandoz Pharmaceuticals Corp., priority 1986, dated 1994)

Experiments:
plasma corticosterone = assay: inhibition of plasma corticosterone rise induced by social stress in mice; assay type: in vivo, mouse (male, OF-1); settings: 0.3 to 3 mg/kg p.o.
Experimental: This can be shown in the following test:
One day before the experiment a group of 5 male mice (40-50 g, OF-1, Sandoz,Basle) were placed in a transparent makrolon cage Typ 3, which is cut in halves by a grid. The next day each mouse was given an oral dose of 0.3-30 mg/kg of a compound of the invention, Two hours later an isolated male mouse was introduced for 15 minutes into the empty half of the cage and two trained observers recorded the behaviour of the mice in terms of acts such as dig, push-dig and rattle. Blood plasma samples were then taken from the tested mice group and assayed for corticosterone concentrations using a modified method of Paerson-Murphy B. E., J. Clin. Endocrinology 27 (1967) 973-990. The procedure was repeated with a control group of 5 mice which was given only a solvent.

[1] = system: electroshock-induced convulsions; assay: inhibition of electroshock-induced convulsions in the mouse; assay type: in vivo, mouse (OF-1); settings: ip, 1 h, i.p., 60 minutes before shock, read-out: EDmin in the electroshock-induced convulsion test
Experimental: E. Swinyard, J. Am. Pharm. Assoc. Scient. Ed. 38, 201 (1949) and J. Pharmacol. Exptl. Therap. 106, 319 (1952)]. In this test groups of 3 mice (18-26 g, OF-1, Sandoz Basle) receive the test substance in a dosage of 3.2-100 mg/kg i.p. After 60 minutes a 50 mA, 200 ms long shock is applied with corneal electrodes smeared with electrolyte jelly. This supra-threshold shock produces tonic extensor convulsions of all extremities. Inhibition of the hindlimb extension is taken as a protective action. After investigation of several dose-levels an EDmin is estimated.

[2] = system: NMDA (N-Methyl-D-aspartic acid) receptors; assay: inhibition of NMDA-induced depolarizations of the isolated amphibian spinal cord (competitive antagonism); assay type: cell-based, toad or frog; settings: at 5 μM
From the text: The compounds of the invention further interact with excitatory amino acid systems, in particular they are competitive antagonists of NMDA (N-Methyl-D-aspartic acid) receptors, as indicated by an inhibitory effect on NMDA-induced depolarizations of the isolated amphibian spinal cord. This may be shown in the test performed in conventional manner (see for example D. R. Curtis et al., J. Physiol. (London) 150, 656-682 (1961) and R. H. Evans et al., Br. J. Pharmac. 67, 591-603 (1979) as follows:
A hemisected proximal part of the spinal cord of a toad or frog lies in a recording chamber being perfused by a Ringer solution (111 mM NaCl, 2 mM KCl, 2 mM CaCl2, 12 mM Glucose, Tris-buffer (pH 7.5, 10 mM). The dorsal root is pulled into the stimulating chambers, the ventral root into the recording chambers. A stimulator connected to the stimulating chambers is used. A DC high impedance preamplifier measures the DC potential between the ground lead sampling the main chamber and one of the recording chambers. The signal from the pre-amplifier is monitored on a CRO to display stimulated synaptic activity (dorsal root--ventral root potential, DR--VRP) or to a chart recorder to display slow changes in potential. […]
Antagonists are tested in two stages. […] In such cases pA2 values are calculated according to the formula […]

## NC(Cc1cc(CP(=O)(O)O)cc(-c2ccccc2)c1)C(=O)O (single isomer, unassigned) [Example 16, (+)-α-Amino-3-(5-phosphonomethyl-[1.1'-biphenyl]-3-yl) propanoic acid]
Plasma corticosterone
  inhibition of the rise of plasma-corticosterone (social stress): inhibits significantly

## NC(Cc1cc(CP(=O)(O)O)cc(-c2ccc(Cl)cc2)c1)C(=O)O (racemic) [Example 1, (±)-α-Amino-3-(4'-chloro-5-phosphonomethyl-[1.1'-biphenyl]-3-yl)propanoic acid]
[1]
  minimal effective dose: < 50 mg/kg
[2]
  pA2 as NMDA receptor inhibitor: 7.3
